The target of this experiment is T1, CDK2/CycE (Homo sapiens, UniProt P24941).
T1 construct: GST; purchased ProQinase GmbH (Freiburg, Germany); host or cells: insect cells (Sf9)
In words: CDK2/CycE kinase assay (TR-FRET). The class given is biochemical. The note with it: avg, read-out: CDK2 avg (IC50 [mol/l]). The method in brief: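 GST-tagged human CDK2 and CycE from Sf9 cells, preincubated 15 min with compound, then 25 min at 22° C. with 10 μM ATP and 0.75 μM biotinylated Rb-derived peptide (final). Phospho-substrate read by TR-FRET (anti-pRB pSer807/pSer811, Eu anti-mouse IgG, streptavidin-XL665), 665/620 nm ratio, normalised to no-inhibitor and no-enzyme controls.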

The source of these data is patent US20170334899A1, “AMINO-SUBSTITUTED ISOTHIAZOLES” (Bayer Pharma Aktiengesellschaft, priority 2014, published 2017).

A value given as a limit tells only on which side of the number the result lay.

On to `Cc1nsc(Nc2cnc(C(F)(F)F)cn2)c1C(=O)Nc1ccc(OCC2CCCN(CC(F)F)C2)nc1` (stereo not drawn) [Example 327, N-(6-{[1-(2,2-difluoroethyl)piperidin-3-yl]methoxy}pyridin-3-yl)-3-methyl-5-{[5-(trifluoromethyl)pyrazin-2-yl]amino}-1,2-thiazole-4-carboxamide], for which the IC50 is at least 20 µM.

On to `Cc1nsc(Nc2cnc(C(F)(F)F)cn2)c1C(=O)Nc1ccc(N2CCN(CC(F)(F)F)CC2)nc1` [Example 360, 3-methyl-N-{6-[4-(2,2,2-trifluoroethyl)piperazin-1-yl]pyridin-3-yl}-5-{[5-(trifluoromethyl)pyrazin-2-yl]amino}-1,2-thiazole-4-carboxamide], for which the IC50 was above 20 µM.

For `Cc1nsc(Nc2cnc(C(F)(F)F)cn2)c1C(=O)Nc1ccc(OCCN(C)CC(F)(F)F)nc1` [Example 350, 3-methyl-N-(6-{2-[methyl(2,2,2-trifluoroethyl)amino]ethoxy}pyridin-3-yl)-5-{[5-(trifluoromethyl)pyrazin-2-yl]amino}-1,2-thiazole-4-carboxamide], the IC50 was at least 20 µM.

On to `Cc1nsc(Nc2cnc(C(F)(F)F)cn2)c1C(=O)Nc1ccc(CCC2CCN(CC(F)F)CC2)nc1` [Example 356, N-(6-{2-[1-(2,2-difluoroethyl)piperidin-4-yl]ethyl}pyridin-3-yl)-3-methyl-5-{[5-(trifluoromethyl)pyrazin-2-yl]amino}-1,2-thiazole-4-carboxamide], for which the IC50 was above 20 µM.

Turning to `Cc1nsc(Nc2cnc(C(F)(F)F)cn2)c1C(=O)Nc1ccc(OC[C@@H]2CCCN(CC(F)(F)F)C2)nc1` [Example 376, 3-methyl-N-(6-{[(3R)-1-(2,2,2-trifluoroethyl)piperidin-3-yl]methoxy}pyridin-3-yl)-5-{[5-(trifluoromethyl)pyrazin-2-yl]amino}-1,2-thiazole-4-carboxamide], the IC50 was above 20 µM.

Take `Cc1nsc(Nc2cnc(C(F)(F)F)cn2)c1C(=O)Nc1ccc(OCCN(C)CC(F)F)nc1` [Example 349, N-(6-{2-[(2,2-difluoroethyl)(methyl)amino]ethoxy}pyridin-3-yl)-3-methyl-5-{[5-(trifluoromethyl)pyrazin-2-yl]amino}-1,2-thiazole-4-carboxamide]: the IC50 was at least 20 µM.

`Cc1nsc(Nc2cnc(C(F)(F)F)cn2)c1C(=O)Nc1ccc(OCCCN(C)CC(F)F)nc1` [Example 353, N-(6-{3-[(2,2-difluoroethyl)(methyl)amino]propoxy}pyridin-3-yl)-3-methyl-5-{[5-(trifluoromethyl)pyrazin-2-yl]amino}-1,2-thiazole-4-carboxamide]: the IC50 was at least 20 µM.

Consider `Cc1nsc(Nc2cnc(C(F)(F)F)cn2)c1C(=O)Nc1ccc(F)c(OC[C@@H]2CCCN(CCC(F)(F)F)C2)c1` [Example 395, N-(4-fluoro-3-{[(3R)-1-(3,3,3-trifluoropropyl)piperidin-3-yl]methoxy}phenyl)-3-methyl-5-{[5-(trifluoromethyl)pyrazin-2-yl]amino}-1,2-thiazole-4-carboxamide], for which the IC50 is above 20 µM.

On to `Cc1nsc(Nc2cnc(C(F)(F)F)cn2)c1C(=O)Nc1ccc(O[C@H]2CCN(CCC(F)(F)F)C2)nc1` [Example 384, 3-methyl-5-{[5-(trifluoromethyl)pyrazin-2-yl]amino}-N-(6-{[(3S)-1-(3,3,3-trifluoropropyl)pyrrolidin-3-yl]oxy}pyridin-3-yl)-1,2-thiazole-4-carboxamide], for which the IC50 was above 20 µM.

Take `CCN1CCC(COc2ccc(NC(=O)c3c(C)nsc3Nc3cnc(C(F)(F)F)cn3)cn2)C(F)(F)C1` (stereo not drawn) [Example 393, N-{6-[(1-ethyl-3,3-difluoropiperidin-4-yl)methoxy]pyridin-3-yl}-3-methyl-5-{[5-(trifluoromethyl)pyrazin-2-yl]amino}-1,2-thiazole-4-carboxamide]: the IC50 is above 20 µM.

Regarding `Cc1nsc(Nc2cnc(C(F)(F)F)cn2)c1C(=O)Nc1ccc(O[C@@H]2CCN(CC(F)F)C[C@H]2F)nc1` [Example 366, N-(6-{[(3R,4R)-1-(2,2-difluoroethyl)-3-fluoropiperidin-4-yl]oxy}pyridin-3-yl)-3-methyl-5-{[5-(trifluoromethyl)pyrazin-2-yl]amino}-1,2-thiazole-4-carboxamide], the IC50 was above 20 µM.

For `Cc1nsc(Nc2cnc(C(F)(F)F)cn2)c1C(=O)Nc1ccc(OC2CCCN(CCF)C2)nc1` (stereo not drawn) [Example 329, N-(6-{[1-(2-fluoroethyl)piperidin-3-yl]oxy}pyridin-3-yl)-3-methyl-5-{[5-(trifluoromethyl)pyrazin-2-yl]amino}-1,2-thiazole-4-carboxamide], the IC50 was at least 20 µM.

Take `Cc1nsc(Nc2cnc3ccccc3n2)c1C(=O)Nc1ccc(OC2CCCN(CC(F)F)C2)nc1` (stereo not drawn) [Example 33, N-(6-{[1-(2,2-Difluoroethyl)piperidin-3-yl]oxy}pyridin-3-yl)-3-methyl-5-(quinoxalin-2-ylamino)-1,2-thiazole-4-carboxamide]: the IC50 was at least 20 µM.

With `Cc1nsc(Nc2cnc(C(F)(F)F)cn2)c1C(=O)Nc1ccc(OCCNCCC(F)(F)F)nc1` [Example 323, 3-methyl-5-{[5-(trifluoromethyl)pyrazin-2-yl]amino}-N-(6-{2-[(3,3,3-trifluoropropyl)amino]ethoxy}pyridin-3-yl)-1,2-thiazole-4-carboxamide], the IC50 is at least 20 µM.

Take `Cc1nsc(Nc2ccc(C#N)cn2)c1C(=O)Nc1ccc(OC2CCNCC2)nc1` [Example 28, 5-[(5-Cyanopyridin-2-yl)amino]-3-methyl-N-[6-(piperidin-4-yloxy)pyridin-3-yl]-1,2-thiazole-4-carboxannide]: the IC50 is at least 20 µM.

For the molecule `Cc1nsc(Nc2cnc(C(F)(F)F)cn2)c1C(=O)Nc1ccc(F)c(OCC2CCCN(CC(F)F)C2)c1` (stereo not drawn) [Example 334, N-(3-{[1-(2,2-difluoroethyl)piperidin-3-yl]methoxy}-4-fluorophenyl)-3-methyl-5-{[5-(trifluoromethyl)pyrazin-2-yl]amino}-1,2-thiazole-4-carboxamide], the IC50 was at least 20 µM.

Take `Cc1nsc(Nc2cnc(C(F)(F)F)cn2)c1C(=O)Nc1ccc(OC2CCN(C(CF)CF)CC2)nc1` [Example 324, N-(6-{[1-(1,3-difluoropropan-2-yl)piperidin-4-yl]oxy}pyridin-3-yl)-3-methyl-5-{[5-(trifluoromethyl)pyrazin-2-yl]amino}-1,2-thiazole-4-carboxamide]: the IC50 is at least 20 µM.

Take `Cc1nsc(Nc2cnc(C(F)(F)F)cn2)c1C(=O)Nc1ccc(F)c(OC[C@@H]2CCCN(CC(F)(F)F)C2)c1` [Example 342, N-(4-fluoro-3-{[(3R)-1-(2,2,2-trifluoroethyl)piperidin-3-yl]methoxy}phenyl)-3-methyl-5-{[5-(trifluoromethyl)pyrazin-2-yl]amino}-1,2-thiazole-4-carboxamide]: the IC50 was above 20 µM.

With `Cc1nsc(Nc2cnc(C(F)(F)F)cn2)c1C(=O)Nc1ccc(OCCN(C)CCC(F)(F)F)nc1` [Example 351, 3-methyl-N-(6-{2-[methyl(3,3,3-trifluoropropyl)amino]ethoxy}pyridin-3-yl)-5-{[5-(trifluoromethyl)pyrazin-2-yl]amino}-1,2-thiazole-4-carboxamide], the IC50 was at least 20 µM.

As for `Cc1nsc(Nc2cnc(C(F)(F)F)cn2)c1C(=O)Nc1ccc(O[C@H]2CCN(CC(F)F)C[C@@H]2F)nc1` [Example 362], the IC50 is above 20 µM.

On to `Cc1nsc(Nc2cnc(C(F)(F)F)cn2)c1C(=O)Nc1ccc(F)c(OCC2CCCN(CCC(F)(F)F)C2)c1` (stereo not drawn) [Example 338, N-(4-fluoro-3-{[1-(3,3,3-trifluoropropyl)piperidin-3-yl]methoxy}phenyl)-3-methyl-5-{[5-(trifluoromethyl)pyrazin-2-yl]amino}-1,2-thiazole-4-carboxamide], for which the IC50 is at least 20 µM.

On to `Cc1nsc(Nc2cnc(C(F)(F)F)cn2)c1C(=O)Nc1ccc(F)c(OC[C@H]2CCN(CCC(F)(F)F)C2)c1` [Example 399, N-(4-fluoro-3-{[(3S)-1-(3,3,3-trifluoropropyl)pyrrolidin-3-yl]methoxy}phenyl)-3-methyl-5-{[5-(trifluoromethyl)pyrazin-2-yl]amino}-1,2-thiazole-4-carboxamide], for which the IC50 was above 20 µM.

Consider `Cc1nsc(Nc2cnc(C(F)(F)F)cn2)c1C(=O)Nc1ccc(C2CCN(CC(F)F)CC2)nc1` [Example 357, N-{6-[1-(2,2-difluoroethyl)piperidin-4 yl]pyridin-3-yl}-3-methyl-5-{[5-(trifluoromethyl)pyrazin-2-yl]amino}-1,2-thiazole-4-carboxamide], for which the IC50 was above 20 µM.

Regarding `Cc1nsc(Nc2cnc(C(F)(F)F)cn2)c1C(=O)Nc1ccc(O[C@@H]2CCN(CC(F)(F)F)C[C@H]2F)nc1` [Example 367, N-(6-{[(3R,4R)-3-fluoro-1-(2,2,2-trifluoroethyl)piperidin-4-yl]oxy}pyridin-3-yl)-3-methyl-5-{[5-(trifluoromethyl)pyrazin-2-yl]amino}-1,2-thiazole-4-carboxamide], the IC50 is above 20 µM.

As to `Cc1nsc(Nc2cc(C#N)ccn2)c1C(=O)Nc1ccc(OC2CCCN(C(=O)OC(C)(C)C)C2)nc1` (stereo not drawn) [Example 34, tert-Butyl 3({5-[({5-[(4-cyanopyridin-2-yl)amino]-3-methyl-1,2-thiazol-4-yl}-carbonyl)amino]pyridin-2-yl}oxy)piperidine-1-carboxylate], the IC50 is at least 20 µM.

Consider `Cc1nsc(Nc2cnc3ccccc3n2)c1C(=O)Nc1ccc(OC2CCCNC2)nc1` (stereo not drawn) [Example 32, 3-Methyl-N-[6-(piperidin-3-yloxy)pyridin-3-yl]-5-(quinoxalin-2-ylamino)-1,2-thiazole-4-carboxannide], for which the IC50 is at least 20 µM.

On to `Cc1nsc(Nc2cnc(C(F)(F)F)cn2)c1C(=O)Nc1ccc(OCCN(C)CCF)nc1` [Example 348, N-(6-{2-[(2-fluoroethyl)(methyl)amino]ethoxy}pyridin-3-yl)-3-methyl-5-{[5-(trifluoromethyl)pyrazin-2-yl]amino}-1,2-thiazole-4-carboxamide], for which the IC50 is at least 20 µM.
